We go through 20 compounds from patent publication US9796733B2, “Imidazo-pyrazine derivatives useful as soluble guanylate cyclase activators” (Merck Sharp & Dohme Corp., priority 2014, dated 2017).

The assay addresses T1, sGC α1/β1 heterodimer (Homo sapiens, UniProt Q02108+Q02153).
T1 construct: expressed in transfected cells; host or cells: CHO-K1 (clone #7, CHO-K1/sGC)
T1 sequence (Q02108 1-690): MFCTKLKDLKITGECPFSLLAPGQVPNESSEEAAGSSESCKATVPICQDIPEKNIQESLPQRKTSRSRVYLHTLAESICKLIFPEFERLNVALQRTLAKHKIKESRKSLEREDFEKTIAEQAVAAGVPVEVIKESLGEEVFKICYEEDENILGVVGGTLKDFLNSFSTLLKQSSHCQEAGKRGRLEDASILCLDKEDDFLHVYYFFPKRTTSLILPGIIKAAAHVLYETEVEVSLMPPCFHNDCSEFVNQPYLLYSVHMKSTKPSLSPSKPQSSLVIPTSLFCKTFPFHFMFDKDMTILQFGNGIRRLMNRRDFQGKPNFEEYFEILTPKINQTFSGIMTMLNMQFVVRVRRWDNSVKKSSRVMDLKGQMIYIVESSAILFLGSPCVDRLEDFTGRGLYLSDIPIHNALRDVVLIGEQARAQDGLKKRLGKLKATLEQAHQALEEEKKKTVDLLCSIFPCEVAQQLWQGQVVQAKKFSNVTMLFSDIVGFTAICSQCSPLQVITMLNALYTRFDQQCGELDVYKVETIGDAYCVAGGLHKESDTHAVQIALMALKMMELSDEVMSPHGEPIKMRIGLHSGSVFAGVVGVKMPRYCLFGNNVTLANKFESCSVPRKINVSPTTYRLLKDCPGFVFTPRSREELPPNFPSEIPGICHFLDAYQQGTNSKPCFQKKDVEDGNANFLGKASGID
T1 sequence (Q02153 1-619): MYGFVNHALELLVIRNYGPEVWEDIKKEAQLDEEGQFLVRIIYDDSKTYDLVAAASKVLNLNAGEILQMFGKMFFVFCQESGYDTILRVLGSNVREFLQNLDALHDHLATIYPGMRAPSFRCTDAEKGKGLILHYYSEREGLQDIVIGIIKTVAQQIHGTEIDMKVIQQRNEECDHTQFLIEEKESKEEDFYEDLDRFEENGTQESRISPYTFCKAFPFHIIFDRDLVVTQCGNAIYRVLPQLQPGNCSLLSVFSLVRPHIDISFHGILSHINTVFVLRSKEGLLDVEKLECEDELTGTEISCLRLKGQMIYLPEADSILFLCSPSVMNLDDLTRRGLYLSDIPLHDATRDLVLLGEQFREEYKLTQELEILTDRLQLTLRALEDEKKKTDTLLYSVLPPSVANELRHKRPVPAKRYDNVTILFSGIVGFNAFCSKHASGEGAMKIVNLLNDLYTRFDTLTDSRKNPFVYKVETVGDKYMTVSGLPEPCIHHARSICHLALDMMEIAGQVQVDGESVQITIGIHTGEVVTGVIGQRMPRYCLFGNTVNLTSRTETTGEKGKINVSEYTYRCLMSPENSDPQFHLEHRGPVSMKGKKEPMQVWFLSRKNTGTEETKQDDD
In words: Cell-based sGC functional assay (CASA assay): cGMP generation in CHO-K1/sGC cells, HTRF detection. The conditions noted are these: for Emax: CHO-K1, percent activation relative to standard Compound A in CHO-K1/sGC cells, read-out: % Act.; for EC50: inflection point (IP) of cGMP generation in CHO-K1/sGC cells, 4P fit, activity expressed as percentage of Compound A. Put shortly: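 Stable CHO-K1/sGC cells in EBSS buffer with 5 mM MgCl2, 0.05% BSA and 0.5 mM IBMX were incubated with compound (2.5% DMSO final) ±1 μM DETA-NO for 1 hr at 37° C. cGMP was measured by HTRF. Activation is expressed as % of reference HDA Compound A maximum, with IP and max fold induction from a 4P fit.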
A general note: TR-FRET usually uses a lanthanide donor and a delayed reading to cut background.

As for `Cc1cc(C2(C3CC3)C(=O)Nc3nc(-c4cn5ccnc5c(CCC(F)(F)C(F)(F)F)n4)nc(N)c32)ncc1F` (single isomer, unassigned) [Example 376B, 4-amino-5-cyclopropyl-5-(5-fluoro-4-methylpyridin-2-yl)-2-(8-(3,3,4,4,4-pentafluorobutyl)imidazo[1,2-a]pyrazin-6-yl)-5H-pyrrolo[2,3-d]pyrimidin-6(7H)-one], the Emax stood at 127% and a half-maximal response (EC50) required 180 nM.

As to `Cc1nc(C2(C3CC3)C(=O)Nc3nc(-c4cn5ccnc5c(CCCC(F)(F)F)n4)nc(N)c32)ccc1Cl` (single isomer, unassigned) [Example 377B], the Emax amounted to 90% and the 50% effective concentration (EC50) is 86 nM.

`CC(F)(F)c1ccc(C2(C)C(=O)Nc3nc(-c4cn5ccnc5c(CCC(F)(F)C(F)(F)F)n4)nc(N)c32)cn1` (single isomer, unassigned) [Example 379A, 4-amino-5-(6-(1,1-difluoroethyl)pyridin-3-yl)-5-methyl-2-(8-(3,3,4,4,4-pentafluorobutyl)imidazo[1,2-a]pyrazin-6-yl)-5H-pyrrolo[2,3-d]pyrimidin-6(7H)-one]: the Emax is 87% and the concentration for a half-maximal effect (EC50) was 152 nM.

As to `CC(F)(F)c1ccc(C2(C)C(=O)Nc3nc(-c4cn5ccnc5c(CCCC(F)(F)F)n4)nc(N)c32)cn1` (single isomer, unassigned) [Example 380B, 4-amino-5-(6-(1,1-difluoroethyl)pyridin-3-yl)-5-methyl-2-(8-(4,4,4-trifluorobutyl)imidazo[1,2-a]pyrazin-6-yl)-5H-pyrrolo[2,3-d]pyrimidin-6(7H)-one], the Emax stood at 181% and the EC50 was found to be 35 nM.

For the compound `CC1(c2ccc(F)cc2)C(=O)Nc2nc(-c3cn4ccnc4c(CCc4ccccc4F)n3)nc(N)c21` (stereo not shown) [Example 3A, 4-amino-2-(8-(2-fluorophenethyl)imidazo[1,2-a]pyrazin-6-yl)-5-(4-fluorophenyl)-5-methyl-5H-pyrrolo[2,3-d]pyrimidin-6(7H)-one], the Emax worked out at 139% and a half-maximal response (EC50) required 19 nM.

On to `CC1(c2ccc(F)cc2)C(=O)Nc2nc(-c3cn4ccnc4c(CCc4cccc(F)c4)n3)nc(N)c21` (stereo not shown) [Example 4A, 4-amino-2-(8-(3-fluorophenethyl)imidazo[1,2-a]pyrazin-6-yl)-5-(4-fluorophenyl)-5-methyl-5H-pyrrolo[2,3-d]pyrimidin-6(7H)-one], for which the Emax was found to be 123% and the EC50 turned out to be 32 nM.

For the compound `CC1(c2ccc(F)cc2)C(=O)Nc2nc(-c3cn4ccnc4c(CCCc4ccccc4)n3)nc(N)c21` (stereo not shown) [Example 5A], the Emax came out at 109% and it took 849 nM to reach a half-maximal effect (EC50).

Turning to `CC1(c2ccc(F)cc2)C(=O)Nc2nc(-c3cn4ccnc4c(-c4ccc(C5CC5)cc4)n3)nc(N)c21` (stereo not shown) [Example 6A, 4-amino-2-(8-(4-cyclopropylphenyl)imidazo[1,2-a]pyrazin-6-yl)-5-(4-fluorophenyl)-5-methyl-5H-pyrrolo[2,3-d]pyrimidin-6(7H)-one], the Emax stood at 115% and the midpoint of the response, the EC50, lay at 559 nM.

On to `COc1ccc(-c2nc(-c3nc(N)c4c(n3)NC(=O)C4(C)c3ccc(F)cc3)cn3ccnc23)cc1` (stereo not shown) [Example 7A, 4-amino-5-(4-fluorophenyl)-2-(8-(4-methoxyphenyl)imidazo[1,2-a]pyrazin-6-yl)-5-methyl-5H-pyrrolo[2,3-d]pyrimidin-6(7H)-one], for which the Emax stood at 63% and the half-maximal effective concentration (EC50) was determined as 583 nM.

With `CCC(CC)Cc1nc(-c2nc(N)c3c(n2)NC(=O)C3(C)c2ccc(Cl)cc2)cn2ccnc12` (stereo not shown) [Example 9A, 4-amino-5-(4-chlorophenyl)-2-(8-(2-ethylbutyl)imidazo[1,2-a]pyrazin-6-yl)-5-methyl-5H-pyrrolo[2,3-d]pyrimidin-6(7H)-one], the Emax stood at 134% and the EC50 amounted to 60 nM.

For `CC1(c2ccc(F)cc2)C(=O)Nc2nc(-c3cn4ccnc4c(CCC4CCCCC4)n3)nc(N)c21` (stereo not shown) [Example 12A, 4-amino-2-(8-(2-cyclohexylethyl)imidazo[1,2-a]pyrazin-6-yl)-5-(4-fluorophenyl)-5-methyl-5H-pyrrolo[2,3-d]pyrimidin-6(7H)-one], the Emax worked out at 142% and a half-maximal effect (EC50) was put at 53 nM.

Turning to `CCC(CC)Cc1nc(-c2nc(N)c3c(n2)NC(=O)C3(C)c2ccc(F)cc2)cn2ccnc12` (stereo not shown) [Example 13A, 4-amino-2-(8-(2-ethylbutyl)imidazo[1,2-a]pyrazin-6-yl)-5-(4-fluorophenyl)-5-methyl-5H-pyrrolo[2,3-d]pyrimidin-6(7H)-one], the Emax was determined as 114% and the midpoint of the response, the EC50, lay at 42 nM.

Turning to `CCCc1nc(-c2nc(N)c3c(n2)NC(=O)C3(C)c2ccc(F)cc2)cn2ccnc12` (stereo not shown) [Example 17A, 4-amino-5-(4-fluorophenyl)-5-methyl-2-(8-propylimidazo[1,2-a]pyrazin-6-yl)-5H-pyrrolo[2,3-d]pyrimidin-6(7H)-one], the Emax turned out to be 124% and the half-maximal effective concentration (EC50) is 157 nM.

As for `CCC(CC)Cc1nc(-c2nc(N)c3c(n2)NC(=O)C3(C)c2ccc(F)cn2)cn2ccnc12` (stereo not shown) [Example 18B, 4-amino-2-(8-(2-ethylbutyl)imidazo[1,2-a]pyrazin-6-yl)-5-(5-fluoropyridin-2-yl)-5-methyl-5H-pyrrolo[2,3-d]pyrimidin-6(7H)-one], the Emax came to 106% and the EC50 amounted to 145 nM.

Take `CC(C)Cc1nc(-c2nc(N)c3c(n2)NC(=O)C3(C)c2ccc(F)cc2)cn2ccnc12` (stereo not shown) [Example 19A, 4-amino-5-(4-fluorophenyl)-2-(8-isobutylimidazo[1,2-a]pyrazin-6-yl)-5-methyl-5H-pyrrolo[2,3-d]pyrimidin-6(7H)-one]: the Emax worked out at 113% and the EC50 is 387 nM.

For the compound `CC1(c2ccc(F)cc2)C(=O)Nc2nc(-c3cn4ccnc4c(C4CCC4)n3)nc(N)c21` (stereo not shown) [Example 21A, 4-amino-2-(8-cyclobutylimidazo[1,2-a]pyrazin-6-yl)-5-(4-fluorophenyl)-5-methyl-5H-pyrrolo[2,3-d]pyrimidin-6(7H)-one], the Emax amounted to 95% and the response was half-maximal at 197 nM (EC50).

In the case of `CC(C)Cc1nc(-c2nc(N)c3c(n2)NC(=O)C3(c2ccc(Cl)cc2)C2CC2)cn2ccnc12` (stereo not shown) [Example 22B, 4-amino-5-(4-chlorophenyl)-5-cyclopropyl-2-(8-isobutylimidazo[1,2-a]pyrazin-6-yl)-5H-pyrrolo[2,3-d]pyrimidin-6(7H)-one], the Emax amounted to 91% and the midpoint of the response, the EC50, lay at 150 nM.

Consider `CC(C)Cc1nc(-c2nc(N)c3c(n2)NC(=O)C3(C)c2ccc(F)cn2)cn2ccnc12` (stereo not shown) [Example 23B, 4-amino-5-(5-fluoropyridin-2-yl)-2-(8-isobutylimidazo[1,2-a]pyrazin-6-yl)-5-methyl-5H-pyrrolo[2,3-d]pyrimidin-6(7H)-one], for which the Emax came out at 96% and a half-maximal response (EC50) required 257 nM.

With `CCCc1nc(-c2nc(N)c3c(n2)NC(=O)C3(C)c2ccc(OC(F)(F)F)cc2)cn2ccnc12` (stereo not shown) [Example 24A, 4-amino-5-methyl-2-(8-propylimidazo[1,2-a]pyrazin-6-yl)-5-(4-(trifluoromethoxy)phenyl)-5H-pyrrolo[2,3-d]pyrimidin-6(7H)-one], the Emax was found to be 104% and the EC50 was 410 nM.

With `CC(C)Cc1nc(-c2nc(N)c3c(n2)NC(=O)C3(C)c2ccc(OC(F)(F)F)cc2)cn2ccnc12` (stereo not shown) [Example 25A, 4-amino-2-(8-isobutylimidazo[1,2-a]pyrazin-6-yl)-5-methyl-5-(4-(trifluoromethoxy)phenyl)-5H-pyrrolo[2,3-d]pyrimidin-6(7H)-one], the Emax was 87% and it took 324 nM to reach a half-maximal effect (EC50).

A word on the EC50: it is the midpoint of the concentration-response curve. The low end stands for higher potency in that assay, the high end for lower potency in that assay.
